Entries after “also recorded” stand apart in the source; their conditions may differ.
Tests used:
Assay type in all cases: cell-based, human
Chk2 = assay: DNA damage response assay (pThr68-Chk2 / total Chk2 western blot); details: HeLa cells, [GI99%], 20 hr, normalized to mitoxantrone
Description: DNA Damage Response Assay: 250,000 HeLa cells were plated in 35 mm culture dishes and allowed to attach for 8 hr and were then treated with the [GI99%] of each compound for 20 hr (total media volume was […] with 1% DMSO). After treatment cells were lysed in 150 μL detergent buffer containing 1:100 v/v protease inhibitor cocktail (Sigma—St. Louis, Mo.). Lysates were run on denaturing 12% acrylamide gels and transferred to nitrocellulose membranes. The membranes were blocked in blotto, incubated in anti-pThr68-Chk2 antibody (Cell Signaling—Danvers, Mass.) at 1:500 v/v dilution in blotto overnight 4° C., washed, incubated in HRP conjugated anti-rabbit secondary antibody (Jackson) at 1:5,000 v/v dilution in blotto for 1 hr, and then developed. The membranes were then stripped with a reducing buffer, blocked in blotto, incubated in anti-Chk2 antibody (Biolegend—San Diego, Calif.) at 1:500 v/v dilution in blotto overnight at 4° C., washed, incubated in HRP conjugated anti-mouse secondary antibody (Jackson) at 1:5,000 v/v dilution in blotto for 1 hr, and then developed. Membranes were developed with PicoWest Developing Solution (Pierce) and exposed to film. The intensities of bands were quantified as described in the previous section. The data are expressed as the average ratio of pThr68-Chk2 to total Chk2 as normalized to the mitoxantrone control in each of three independent experiments.
Topoisomerase inhibition by most mechanisms should cause activation of DNA damage response pathways because of the production of single and double strand DNA breaks, as is the case with amonafide. […] Therefore, measuring the DNA damage response at a fixed cytotoxic dose ([GI99%]) will determine the extent that DNA damage contributes to the cytotoxicity of these compounds. […] Activation of Chk2 was determined by measuring the ratio of pThr68-Chk2 to total Chk2 in HeLa cells treated with the [GI99%].

HeLa cells [1] = assay: Transwell invasion assay; details: [GI99%], matrigel, 20 hr
Description: Transwell Invasion Assay: HeLa cells were plated at 250,000 per 35 mm well and allowed to attach for 8 hr. The cells were washed with PBS and then treated for 4 hr with the [GI99%] of each compound (or 1% DMSO—vehicle control) in serum free media to decrease the number of invading cells in the beginning of the experiment due to a preliminary lack of drug exposure. The cells were then trypsinized and counted by trypan blue exclusion with a hemacytometer (Sigma—St. Louis, Mo.). Eight micron pore size control well inserts for 12 well plates (BD Biosciences) were coated with 100 μL 1 mg/mL matrigel (Sigma—St. Louis, Mo.) and allowed to solidify at room temperature for 1 hr. The excess matrigel was aspirated and the inserts were gently washed with PBS. The cells were seeded at a density of 300,000 per insert well in a volume of 500 μL serum free media containing a derivative or vehicle. The inserts were then placed in wells containing 700 μL serum free media with the respective compound. After 20 hr the cells on the top of the membranes were gently removed with a cotton swab, the membranes then were fixed in methanol for 1 min, stained in Gills No. 3 Hematoxylin (Sigma—St. Louis, Mo.) for 5 min, rinsed in tap water, and allowed to dry overnight. The membranes were excised, mounted on slides, and the cells were counted under the 40× objective of a bright field microscope. The data are expressed as the average total number of invading cells counted in 20 fields of each membrane, as standardized to the vehicle control, from six experiments.
Effect of derivatives on the malignant phenotype—invasion assay: If A1-A9 have differential targets, DNA binding specificity, or downstream effects they may differentially alter the malignant behavior of cells. Also, anti-cancer compounds can be efficacious against tumors in other ways besides inhibiting growth and inducing death of cancer cells; they can also alter the behavior of malignant cells. Therefore, the ability of A1-A9 and amonafide to alter the invasive behavior of cancer cells in a transwell (also known as Boyden chamber) invasion assay was evaluated, which determines the ability of cells to migrate through a proteinacious gel. This behavior is considered to be representative of cancer cell invasion through the basement membrane of the primary tumor environment. In this assay, treated cells are seeded on to the top of the matrigel-coated porous membrane, allowed to invade through the proteinacious gel onto the underside of the membrane, and then counted.

HeLa cells [2] = assay: Perinucleolar compartment (PNC) prevalence reduction; details: [GI50%] for 72 hr
Description: Perinucleolar Compartment (PNC) Reduction: HeLa cells (PNC prevalence ˜85%) were plated 5,000/well in glass bottom 96 well plates and allowed to attach for 8 hr. The cells were then treated with compounds at the respective [GI50%] for 72 hr and [GI99%] for 20 hr for each compound (total media volume was 200 μL/well with 1% DMSO). After treatment cells were immunofluorescently stained as previously described, but with a Texas Red labeled secondary antibody (Jackson) instead of a FITC labeled secondary antibody. PNC prevalence (% of non-apoptotic/non-mitotic cells with 1 or more PNCs) was determined by scoring >200 cells per well with fluorescent microscope (60× objective) and images were acquired with the digital camera and image acquisition software previously mentioned. Scale bar=10 μm. Data are expressed as the average PNC prevalence (% control) of three individual experiments.
The PNC is a unique structural marker that it is only found in malignantly transformed cancer cells, irrespective of tissue origin, and indicates cells that are capable of metastasis. […] Previous studies indicate that the PNC likely conveys a functional metastatic advantage to cancer cells. The PNC prevalence (% of cells with one or more PNC) in human breast cancer positively correlates with the progression of the disease and is always near 100% in distant metastases. […] The PNC prevalence reduction was determined for amonafide and A1-A9 at the respective [GI50%] and [GI99%] doses in HeLa cells, which have a high PNC prevalence of ˜85%.

[3] = system: topoisomerase II (topo II); assay: Topoisomerase II inhibition assay (topo II-DNA cleavable complexes in treated cells); details: HeLa cells, [GI99%], 20 hr, normalized to mitoxantrone
Description: In Vitro Topoisomerase Inhibition: HeLa cells were plated at a density of 1.5 million in 35 mm wells and allowed to attach for 20 hr. They were then treated with each compound at the [GI99%] in 10 mL media for 20 hr. In vitro topoisomerase II inhibition was quantified using TopoGEN's Topoisomerase II In vivo Link Kit according to the protocol included with the kit and according to a previously published protocol [24] with slight modifications. In summary, DNA was isolated from sarkosyl lysed cells, layered on a cesium chloride gradient (total volume ˜7 mL), ultra-centrifuged, and then fractionated to 0.5 mL. The fractions were diluted 1:4 v/v in PBS and the fractions containing the genomic DNA were determined by measuring the absorbance at 260 nm for each fraction. The fractions were then loaded into a slot blotting apparatus and pulled through a nitrocellulose membrane by vacuum. The membrane was blocked in 5% w/v milk in 1×TBST (blotto) for 2 hr, incubated in 1:5,000 v/v topoisomerase II (topo II) primary antibody (TopoGEN) in blotto for 1 hr, washed, and incubated in 1:2,000 v/v HRP conjugated anti-rabbit secondary antibody (Jackson—West Grove, Pa.) in blotto for 45 min, washed and developed with SuperSignal West Pico Chemiluminescent Substrate (Pierce—Rockford, Ill.). The data were processed by dividing the intensity of the 2 or 3 most intense topo II immuno-reactive bands by the amount of DNA in the respective fractions. The band intensity was determined by scanning the developed films with a Kodak Image Station 440 CF and measuring the average pixel intensity of an area slightly larger than each band and subtracting the median background pixel intensity of the perimeter of the same area using Kodak MI software. Etoposide (TopoGEN) and mitoxantrone (Sigma—St. Louis, Mo.) are topo II inhibitors used as positive controls. […] Data were standardized to mitoxantrone in each of three independent experiments. […]

HeLa cells [4] = assay: MTS growth inhibition assay, HeLa cells; details: concentration used in topo II assay
Description: Cell Culture: HeLa (cervical carcinoma), WI-38 (normal human […] fibroblasts), and MDA-MB-231 (breast carcinoma), cells were cultured in DMEM (Invitrogen—Carlsbad, Calif.) and PC-3M (metastatic prostate carcinoma) cells were cultured in RPMI-1640. Peripheral blood mononuclear cells (PBMCs) were voluntarily collected from a healthy laboratory worker by standard sterile phlebotomy techniques and isolated using Vacutainer CPT collection tubes (BD Biosciences—Bedford, Mass.). PBMCs were isolated freshly for each experiment. All DMEM and RPMI-1640 media was supplemented with 10% FBS (Atlanta Biologicals—Lawrenceville, Ga.) and 100 U/mL penicillin and streptomycin (Invitrogen). HUVEC (Human umbilical vein endothelial cells) were cultured in EGM-2 media with supplements provided in the manufacturers BulletKit (Lonza—Walersville, Md.). All cells were maintained at 37° C. and in a 5% CO2 atmosphere.
Growth Inhibition Assays: HeLa, MDA-MB-231, PC-3M, WI-38, and HUVEC cells were plated at 5,000 cells per well in 96 well plates and allowed to attach for 20 hr (8 hr for HeLa). The media was removed and 198 μL of fresh media was added to each well. […] Cell proliferation was measured at t=0 (time at start of treatment) and t=72 hr using MTS AQueous non-radioactive proliferation assay (Promega—Madison, Wis.). […] The absorbance at 490 nm in each well was read with a Spectramax 250 plate reader (Molecular Devices—Sunnyvale, Calif.). […] Data were fit to one site dose response curves in order to obtain specific growth inhibitory concentrations and the relative standard errors of the mean for these concentrations were calculated by the XLfit4 software. Statistical significance (p value) for the selectivity and all subsequent assays was determined with the two tailed homoscedastic Student's t-test. […]

Row | Compound | invasive behavior (% invading cells vs vehicle) (HeLa cells [1]) | stabilization of topo II-DNA cleavable complexes [3] | [IC99%] (HeLa cells [4]) [µM] | other results
1 | CCCNc1ccc2c3c(cccc13)C(=O)N(CCN(C)C)C2=O [A2, 6-propylamino-2-[2-(dimethylamino)ethyl]-1H-benz[de]isoquinoline-1,3(2H)-dione] |  |  |  | DNA damage response (ratio of pThr68-Chk2 to total Chk2) (Chk2): evoked the strongest DNA damage response
2 | C=CCNc1ccc2c3c(cccc13)C(=O)N(CCN(C)C)C2=O [A3, 6-allylamino-2-[2-(dimethylamino)ethyl]-1H-benz[de]isoquinoline-1,3(2H)-dione] | did not significantly alter the invasive behavior of HeLa cells compared to the control |  |  | 
3 | COCCNc1ccc2c3c(cccc13)C(=O)N(CCN(C)C)C2=O [A4, 6-methoxyethylamino-2-[2-(dimethylamino)ethyl]-1H-benz[de]isoquinoline-1,3(2H)-dione] | greatly decreases invasion compared to amonafide and control |  |  | PNC prevalence reduction at [GI50%] (HeLa cells [2]): able effectively reduce the PNC; also recorded: reduces PNC prevalence to the same extent as amonafide; also recorded: can significantly reduce PNC prevalence
4 | CCN(CC)c1ccc2c3c(cccc13)C(=O)N(CCN(C)C)C2=O [A8, 6-diethylamino-2-[2-(dimethylamino)ethyl]-1H-benz[de]isoquinoline-1,3(2H)-dione] | did not significantly alter the invasive behavior of HeLa cells compared to the control |  |  | 
5 | CC[C@@]1(O)C(=O)OCc2c1cc1n(c2=O)Cc2cc3ccccc3nc2-1 [camptothecin] |  | did not cause the stabilization of topo II-DNA cleavable complexes | 0.28 | 
6 | COc1cc([C@@H]2c3cc4c(cc3[C@@H](O[C@@H]3O[C@@H]5CO[C@@H](C)O[C@H]5[C@H](O)[C@H]3O)[C@H]3COC(=O)[C@H]23)OCO4)cc(OC)c1O [etoposide] |  | caused formation of abundant drug stabilized topo II-DNA cleavable complexes | 9.62 | 
7 | O=C1c2c(O)ccc(O)c2C(=O)c2c(NCCNCCO)ccc(NCCNCCO)c21 [mitoxantrone] |  | caused formation of abundant drug stabilized topo II-DNA cleavable complexes | 1.01 | 

Reference: US9878984B2, “Anti-cancer compounds” (NORTHWESTERN UNIVERSITY, priority 2008, dated 2018)
